Measured values: patent publication US7390836B2, “Small molecules used to increase cell death” (priority 1999, dated 2008)

What was measured:
BH3/Bcl-xL binding = assay: SELDI binding assay, unlabeled Bak BH3 peptide on immobilized Bcl-xL-His6
Description: To test the possibility that BH3Is target the OREGON GREEN moiety of the fluorescently labeled BH3 peptide, a novel BH3/Bcl-xL binding assay using unlabeled BH3 peptide was designed. In this assay Bcl-xL was covalently attached to a surface-enhanced laser desorption/ionization (SELDI) chip, and binding of the unlabelled BH3 peptide to the immobilized protein was monitored by mass spectrometry. Specifically, purified recombinant GST-Bcl-2 and BCL-xL-His6 were coupled through their primary amines to SELDI chip surfaces derivatized with carbonyldiimidazole (Ciphergen). Bak BH3 peptide was then added (in a total volume of 1 μl) for 12 hours at 4° C. in a humidified chamber, to allow binding to each spot of the SELDI chip. The chip was then washed with alternating high and low pH-0.1M sodium acetate with 0.5M NaCl, followed by 0.01M HEPES; pH 7.3. The samples were embedded in α-cyanno-4-hydroxycinnamaic acid matrix and analyzed for mass by MALDI TOF. An average of 100 laser shots at a constant setting were collected over 20 spots in each sample.

Bcl-xL = molecular target: T1, Bcl-xL (Homo sapiens, UniProt Q07817, DEL45-84); assay: Bcl-xL pore formation, carboxyfluorescein release from liposomes; type: biochemical; conditions: 5 μM Bcl-xL-His6, pH 4.0
T1 construct: His6 (C); made in house
Description: Bcl-xL forms membrane pores, and the formation of these pores may play a role in Bcl-xL's ability to regulate apoptosis. Thus, the effects of the BH3Is on pore formation by Bcl-xL were tested (Minn, et al., Nature 385:353-7, 1997; Schendel et al., Proc. Natl. Acad. Sci. USA 94:5113-8, 1997; Minn et al., EMBO J. 18:632-43,1999; and Matsuyama et al., J. Biol. Chem. 273:30995-1001, 1998). Liposomes containing 20 mM of 5,6-carboxyfluorescein were prepared as previously described (Antonsson, et al., Science 277:370-2,1997). For Bcl-xL pore formation 5 μM Bcl-xL-His6 was preincubated with BH3I-2 or Bak BH3 peptide in 50 μl of 5 mM sodium citrate, 150 mM NaCl, pH 4.0 buffer for 10 min at 25° C., followed by addition of 5 μl of undiluted liposomes. Prior to determination of the fluorescence pH was adjusted by adding 10 μl of 1.5 M Tris-HCl, pH 7.5.

T1 sequence (Q07817 with tags, fused parts or gaps DEL45-84 limits assumed): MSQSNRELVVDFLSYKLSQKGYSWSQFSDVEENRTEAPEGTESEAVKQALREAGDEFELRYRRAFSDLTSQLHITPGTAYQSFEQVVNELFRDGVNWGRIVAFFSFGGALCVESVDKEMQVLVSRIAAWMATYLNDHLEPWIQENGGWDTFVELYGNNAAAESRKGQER

Bcl-xL-mediated release of carboxyfluorescein from liposomes (Bcl-xL): Neither BH3Is nor BH3 peptide affected
Sequence: KGGGQVGRQLAIIGDDINR (SEQ ID NO: 2) (BAK) [BH3 peptide, nineteen amino acid Bak peptide corresponding to the BH3 domain of Bak, reference compound]
binding of BH3 peptide to Bcl-xL-modified surface (BH3/Bcl-xL binding): bound to the Bcl-xL-modified surface in a dose-dependent fashion
